Test results: US20140228299A1, “PROPHYLACTIC AND THERAPEUTIC AGENT FOR NEUROLOGICAL DISEASES USING LIPOPROTEINS AND PROPHYLACTIC AND THERAPEUTIC METHOD FOR NEUROLOGICAL DISEASES” (National University Corporation Tokyo Medical and Dental …, priority 2011, published 2014)

Columns and labels:
[1] = test system: intracellular Ca2+ (LRP1 / NMDA receptor) in RGC; assay: Intracellular Ca2+ increase in RGC after glutamate+glycine (Fluo-8 fluorescence); format: cell-based, rat; settings: E-LP 100 ng protein/mL, 15 minutes before 300 μM glutamate+10 μM glycine
Experimental: The inflow of calcium into RGC was confirmed in the manner as described below. Specifically, RGC was incubated on a microdish at least for 14 days, followed by incubation at 37° C. for 30 minutes using 3 μM Fluo-8 acetoxymethyl ester (AAT Bioquest, Sunnyvale, Calif.). The resulting cells were washed twice with 500 μl of the above HBSS, and 300 μM glutamate and 10 μM glycine were poured. The fluorescence images were taken at every 500 msec by ORCA-R2 digital camera (Hamamatsu Photonics, Hamamatsu, Japan) and analyzed by MetaFluor fluorescence ratio imaging software (Molecular Devices, Sunnyvale, Calif.).
RGC was labeled with Fluo-8 acetoxymethyl ester for 30 minutes, and Glu (300 μM glutamate+10 μM glycine) was added thereto. Fluorescent ratio images were as represented by colors indicated by the color index shown at the lower side of FIG. 12A. The color was represented as Ratio 0 and Ratio 2 corresponding to the base fluorescent intensity (Ratio 1) before Glu stimulation. The panels on the left and right sides indicate Glu and Glu+E-LP, respectively. […] The scale bar is 80 μm.
FIGS. 12B and C show variations of fFuo-8 fluorescence represented by ΔF/F0. In the figures, F0 indicates the base fluorescence intensity before Glu stimulation. * and **: p<0.005 and p<0.0001 (Glu vs. Glu+E-LP). […]

[2] = molecular target: T1, complex of LRP1 and NMDA receptor (Rattus norvegicus, UniProt G3V928); assay: Immune precipitation of LRP1-NMDA receptor complex from RGC; format: cell-based; settings: LP added to RGC culture, cells collected in 15 minutes; anti-NMDA receptor 2B immune precipitation
T1 construct: endogenous in cells
Experimental: LP was added to a culture liquid of the retinal glia cells and the cells were collected in 15 minutes, followed by the immune precipitation as will be described below. For the immune precipitation, a rabbit anti-NMDA receptor 2B antibody was used, and the Western blotting was performed for LRP1 and NMDA receptor 2B.
The immune precipitation was carried out in the manner as will be described below. Specifically, the co-immunoprecipitation was performed in accordance with procedures of May et al. (May et al., 2004) by using a mixed solution prepared by adding a RGC dissolved solution to a mixed solution of a complete EDTA-free protease inhibitor cocktail (Roche, Mannheim, Germany) and a PhosSTOP phosphatase inhibitor cocktail (Roche) and a mixture of 10 mM Tris-HCl (pH7.4), 150 mM NaCl, 1 mM MgCl2, 1 mM CaCl2 and 1% Triton X-100. RGC was washed once with HBSS and collected on a 96-well plate using 40 μl per well of a dissolving buffer. The dissolved solutions from wells 9-12 were combined in each group. The RGC dissolved solution was passed fifteen times through a 22-gauge needle and then centrifuged at 15,000×g for 15 minutes at 4° C. The resulting supernatant was pretreated at 4° C. for 1 hour with 40 μl of 50% equilibrated protein G-Sepharose (GE Healthcare, Buckinghamshire, UK), and the Sepharose beads were removed by centrifugation. […]

T1 sequence (G3V928 20-3944 limits assumed, one chain of several): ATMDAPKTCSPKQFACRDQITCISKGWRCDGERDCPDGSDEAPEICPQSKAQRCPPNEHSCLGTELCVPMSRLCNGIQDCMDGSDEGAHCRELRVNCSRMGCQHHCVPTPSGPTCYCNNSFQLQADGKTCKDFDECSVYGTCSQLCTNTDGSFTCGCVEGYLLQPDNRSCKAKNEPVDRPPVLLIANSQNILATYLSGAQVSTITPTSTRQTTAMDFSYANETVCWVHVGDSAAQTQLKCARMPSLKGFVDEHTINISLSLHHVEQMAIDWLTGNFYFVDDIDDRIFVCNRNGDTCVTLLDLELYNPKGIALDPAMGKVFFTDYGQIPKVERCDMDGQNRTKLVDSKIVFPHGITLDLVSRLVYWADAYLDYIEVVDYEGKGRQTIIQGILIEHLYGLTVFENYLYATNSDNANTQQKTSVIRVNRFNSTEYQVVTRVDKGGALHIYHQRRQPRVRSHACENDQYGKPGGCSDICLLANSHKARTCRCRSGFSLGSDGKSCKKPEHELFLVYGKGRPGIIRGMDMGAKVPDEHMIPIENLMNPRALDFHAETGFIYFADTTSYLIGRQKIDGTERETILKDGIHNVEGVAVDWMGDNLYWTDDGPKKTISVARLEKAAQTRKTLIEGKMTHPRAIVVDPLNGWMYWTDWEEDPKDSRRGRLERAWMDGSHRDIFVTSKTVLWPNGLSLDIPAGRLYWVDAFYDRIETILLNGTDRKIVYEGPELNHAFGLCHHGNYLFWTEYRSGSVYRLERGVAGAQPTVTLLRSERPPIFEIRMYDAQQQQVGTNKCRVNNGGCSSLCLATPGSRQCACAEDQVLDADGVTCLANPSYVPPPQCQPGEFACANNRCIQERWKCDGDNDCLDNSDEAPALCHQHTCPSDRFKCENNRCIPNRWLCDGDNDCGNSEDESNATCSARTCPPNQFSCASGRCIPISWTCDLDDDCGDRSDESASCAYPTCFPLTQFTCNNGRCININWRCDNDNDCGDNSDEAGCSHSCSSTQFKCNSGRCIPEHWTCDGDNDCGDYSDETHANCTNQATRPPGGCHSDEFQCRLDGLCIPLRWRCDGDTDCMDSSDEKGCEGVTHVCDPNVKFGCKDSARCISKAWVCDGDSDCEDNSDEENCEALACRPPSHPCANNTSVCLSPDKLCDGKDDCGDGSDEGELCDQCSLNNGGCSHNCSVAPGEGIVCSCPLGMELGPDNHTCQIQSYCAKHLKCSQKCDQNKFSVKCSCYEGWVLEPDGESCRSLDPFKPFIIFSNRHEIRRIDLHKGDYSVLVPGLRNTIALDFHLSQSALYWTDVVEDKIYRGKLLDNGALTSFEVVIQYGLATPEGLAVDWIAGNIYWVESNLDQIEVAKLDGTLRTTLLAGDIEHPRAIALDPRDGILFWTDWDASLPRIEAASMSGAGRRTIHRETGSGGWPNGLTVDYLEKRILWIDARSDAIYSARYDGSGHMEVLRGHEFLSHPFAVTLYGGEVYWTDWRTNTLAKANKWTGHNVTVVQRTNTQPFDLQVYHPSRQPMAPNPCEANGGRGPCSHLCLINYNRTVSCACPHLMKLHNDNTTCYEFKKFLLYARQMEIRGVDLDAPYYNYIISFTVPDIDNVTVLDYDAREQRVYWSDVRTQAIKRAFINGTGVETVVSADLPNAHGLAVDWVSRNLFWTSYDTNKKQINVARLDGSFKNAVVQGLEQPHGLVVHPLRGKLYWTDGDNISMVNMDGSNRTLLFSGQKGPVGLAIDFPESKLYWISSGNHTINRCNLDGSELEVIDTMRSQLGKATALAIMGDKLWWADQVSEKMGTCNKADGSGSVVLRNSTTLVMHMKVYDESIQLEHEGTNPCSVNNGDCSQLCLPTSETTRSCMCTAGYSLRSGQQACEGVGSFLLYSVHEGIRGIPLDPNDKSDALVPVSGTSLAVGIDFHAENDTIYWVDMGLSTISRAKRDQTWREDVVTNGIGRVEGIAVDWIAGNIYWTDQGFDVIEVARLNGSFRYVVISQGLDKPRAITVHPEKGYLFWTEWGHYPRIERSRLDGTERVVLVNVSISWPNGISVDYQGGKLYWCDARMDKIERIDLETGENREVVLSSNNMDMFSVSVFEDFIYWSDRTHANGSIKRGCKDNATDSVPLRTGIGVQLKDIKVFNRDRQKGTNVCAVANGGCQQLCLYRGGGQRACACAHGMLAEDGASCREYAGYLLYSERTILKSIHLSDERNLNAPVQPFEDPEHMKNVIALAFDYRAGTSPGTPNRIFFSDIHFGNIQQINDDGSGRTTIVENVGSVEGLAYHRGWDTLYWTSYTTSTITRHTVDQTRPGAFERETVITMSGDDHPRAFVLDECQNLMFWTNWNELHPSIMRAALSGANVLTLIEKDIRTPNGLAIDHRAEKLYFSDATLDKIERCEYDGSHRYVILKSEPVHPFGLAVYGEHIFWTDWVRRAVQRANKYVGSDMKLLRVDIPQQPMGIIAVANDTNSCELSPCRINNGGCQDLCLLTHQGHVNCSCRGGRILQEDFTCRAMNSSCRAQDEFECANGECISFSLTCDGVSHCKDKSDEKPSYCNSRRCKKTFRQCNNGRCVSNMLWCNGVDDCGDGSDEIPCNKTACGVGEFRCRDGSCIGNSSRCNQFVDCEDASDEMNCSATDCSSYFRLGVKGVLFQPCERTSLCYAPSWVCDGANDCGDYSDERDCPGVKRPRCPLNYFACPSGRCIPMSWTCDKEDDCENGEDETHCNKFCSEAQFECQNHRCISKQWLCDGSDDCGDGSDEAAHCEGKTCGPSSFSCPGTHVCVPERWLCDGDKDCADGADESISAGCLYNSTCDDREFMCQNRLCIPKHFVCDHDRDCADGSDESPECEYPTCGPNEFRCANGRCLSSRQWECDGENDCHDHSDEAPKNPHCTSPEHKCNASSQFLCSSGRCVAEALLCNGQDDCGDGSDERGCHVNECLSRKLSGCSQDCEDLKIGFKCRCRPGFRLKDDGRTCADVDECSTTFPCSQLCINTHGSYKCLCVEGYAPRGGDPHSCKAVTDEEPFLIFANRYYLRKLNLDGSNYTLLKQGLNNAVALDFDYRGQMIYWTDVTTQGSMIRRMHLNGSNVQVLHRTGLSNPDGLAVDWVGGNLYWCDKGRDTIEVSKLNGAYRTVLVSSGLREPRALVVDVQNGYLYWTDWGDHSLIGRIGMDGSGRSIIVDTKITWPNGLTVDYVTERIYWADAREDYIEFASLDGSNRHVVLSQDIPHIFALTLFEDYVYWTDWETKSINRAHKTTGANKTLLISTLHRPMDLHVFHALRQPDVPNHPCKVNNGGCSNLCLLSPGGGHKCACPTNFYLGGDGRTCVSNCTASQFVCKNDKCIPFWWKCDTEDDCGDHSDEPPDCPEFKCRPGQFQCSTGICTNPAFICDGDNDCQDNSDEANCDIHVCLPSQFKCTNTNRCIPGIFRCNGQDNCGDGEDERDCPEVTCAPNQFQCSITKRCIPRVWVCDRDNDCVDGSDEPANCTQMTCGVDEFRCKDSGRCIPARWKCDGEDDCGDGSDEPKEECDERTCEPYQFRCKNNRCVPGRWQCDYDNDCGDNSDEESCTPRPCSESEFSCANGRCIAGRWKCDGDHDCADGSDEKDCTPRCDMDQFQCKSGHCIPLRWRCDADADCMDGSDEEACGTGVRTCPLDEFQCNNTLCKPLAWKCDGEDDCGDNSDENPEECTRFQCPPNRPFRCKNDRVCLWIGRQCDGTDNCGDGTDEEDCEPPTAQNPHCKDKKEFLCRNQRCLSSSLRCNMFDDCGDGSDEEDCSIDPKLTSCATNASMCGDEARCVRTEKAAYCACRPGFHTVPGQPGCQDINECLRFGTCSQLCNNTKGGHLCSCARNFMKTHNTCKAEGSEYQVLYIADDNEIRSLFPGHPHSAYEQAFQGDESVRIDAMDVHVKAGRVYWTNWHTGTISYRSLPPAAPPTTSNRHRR

Row | increase in intracellular Ca2+ [1] | formation of a complex of LRP1 and NMDA receptor [2] | Substance
1 | inhibits | – | E-LP: reconstituted lipoprotein of 1-palmitoyl-2-oleyl-glycerophosphocoline, cholesterol and recombinant human apolipoprotein E, molar ratio 100:10:1 or 100:0:1
2 | – | promotes | LP: reconstituted lipoprotein of POPC, cholesterol and recombinant human apolipoprotein E3
